Measured values: patent US20230248834A1, “DEGRADATION OF (EGFR) BY CONJUGATION OF EGFR INHIBITORS WITH E3 LIGASE LIGAND AND METHODS OF USE” (BEIGENE, LTD., priority 2020, published 2023)

Experiments:
EGFR L858R/T790M/C797S = target: T1, EGFR L858R/T790M/C797S (Homo sapiens, UniProt P00533, C797S/L858R/T790M); assay: EGFR degradation HTRF assay in BaF3-LTC cells; format: cell-based; conditions: BaF3-LTC (L858R/T790M/C797S), maximum percentage of inhibition (degradation); read-out: BaF3-LTC Dmax (%)
T1 construct: expressed in transfected cells; host or cells: BaF3-LTC
In short: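 BaF3 cells expressing EGFR L858R/C797S or L858R/T790M/C797S treated 16 h at 37 °C with compounds (top 10 uM, 5-fold, 8 doses; 0.2% DMSO). Remaining EGFR quantified by HTRF in lysates after overnight antibody incubation. Degradation percentage versus DMSO controls; DC50 from four-parameter fit, Dmax as maximal degradation.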

EGFR L858R/C797S = target: T2, EGFR L858R/C797S (Homo sapiens, UniProt P00533, C797S/L858R); assay: EGFR degradation HTRF assay in BaF3 LC cells; format: cell-based; conditions: BaF3 LC (L858R/C797S), maximum percentage of inhibition (degradation); read-out: BaF3 LC Dmax (%)
T2 construct: expressed in transfected cells; host or cells: BaF3 LC
Description: BaF3-LTC(L858R/T790M/C797S) cells and BaF3 LC(L858R/C797S) cells are treated with compounds diluted in 0.2% DMSO cell culture medium and incubate for 16 h, 37° C., 5% CO2. the final concentration of compounds in all assay is start with 10 uM, 5-fold dilution, total 8 doses were included.
After 16 h treatment, add HTRF lysis buffer to each well; seal the plate and incubate 1 hour at room temperature on a plate shaker; Once the cells are lysed, 16 μL of cell lysate are transferred to a PE 384-well HTRF detection plate; 4 μL of pre-mixed HTRF antibodies are added to each well; Cover the plate with a plate sealer, spin 1000 rpm for 1 min, Incubate overnight at room temperature; Read on BMG PheraStar with HTRF protocol (337 nm-665 nm-620 nm).
The inhibition (degradation) percentage of the compound was calculated by the following equation: Inhibition percentage of Compound=100−100×(Signal−low control)/(High control−low control), wherein signal=each test compound group
High control=Cell group with added DMSO and without compound, indicating microplate readings without EGFR degradation;
Dmax is the maximum percentage of inhibition (degradation).
The IC50 (DC50) value of a compound can be obtained by fitting the following equation
Y=Bottom+(TOP−Bottom)/(1+((IC50/X)^hillslope))
Wherein, X and Y are known values, and IC50, Hillslope, Top and Bottom are the parameters obtained by fitting with software. Y is the inhibition percentage (calculated from the equation), X is the concentration of the compound; IC50 is the concentration of the compound when the 50% inhibition is reached. The smaller the IC50 value is, the stronger the inhibitory ability of the compound is. Vice versa, the higher the IC50 value is, the weaker the inhibitory ability of the compound is; Hillslope represents the slope of the fitted curve, generally around 1*; Bottom represents the minimum value of the curve obtained by data fitting, which is generally 0%±20%; Top represents the maximum value of the curve obtained by data fitting, which is generally 100%±20%. The experimental data were fitted by calculating and analyzing with Dotmatics data analysis software.

T2 sequence (P00533 25-1210 C797S/L858R): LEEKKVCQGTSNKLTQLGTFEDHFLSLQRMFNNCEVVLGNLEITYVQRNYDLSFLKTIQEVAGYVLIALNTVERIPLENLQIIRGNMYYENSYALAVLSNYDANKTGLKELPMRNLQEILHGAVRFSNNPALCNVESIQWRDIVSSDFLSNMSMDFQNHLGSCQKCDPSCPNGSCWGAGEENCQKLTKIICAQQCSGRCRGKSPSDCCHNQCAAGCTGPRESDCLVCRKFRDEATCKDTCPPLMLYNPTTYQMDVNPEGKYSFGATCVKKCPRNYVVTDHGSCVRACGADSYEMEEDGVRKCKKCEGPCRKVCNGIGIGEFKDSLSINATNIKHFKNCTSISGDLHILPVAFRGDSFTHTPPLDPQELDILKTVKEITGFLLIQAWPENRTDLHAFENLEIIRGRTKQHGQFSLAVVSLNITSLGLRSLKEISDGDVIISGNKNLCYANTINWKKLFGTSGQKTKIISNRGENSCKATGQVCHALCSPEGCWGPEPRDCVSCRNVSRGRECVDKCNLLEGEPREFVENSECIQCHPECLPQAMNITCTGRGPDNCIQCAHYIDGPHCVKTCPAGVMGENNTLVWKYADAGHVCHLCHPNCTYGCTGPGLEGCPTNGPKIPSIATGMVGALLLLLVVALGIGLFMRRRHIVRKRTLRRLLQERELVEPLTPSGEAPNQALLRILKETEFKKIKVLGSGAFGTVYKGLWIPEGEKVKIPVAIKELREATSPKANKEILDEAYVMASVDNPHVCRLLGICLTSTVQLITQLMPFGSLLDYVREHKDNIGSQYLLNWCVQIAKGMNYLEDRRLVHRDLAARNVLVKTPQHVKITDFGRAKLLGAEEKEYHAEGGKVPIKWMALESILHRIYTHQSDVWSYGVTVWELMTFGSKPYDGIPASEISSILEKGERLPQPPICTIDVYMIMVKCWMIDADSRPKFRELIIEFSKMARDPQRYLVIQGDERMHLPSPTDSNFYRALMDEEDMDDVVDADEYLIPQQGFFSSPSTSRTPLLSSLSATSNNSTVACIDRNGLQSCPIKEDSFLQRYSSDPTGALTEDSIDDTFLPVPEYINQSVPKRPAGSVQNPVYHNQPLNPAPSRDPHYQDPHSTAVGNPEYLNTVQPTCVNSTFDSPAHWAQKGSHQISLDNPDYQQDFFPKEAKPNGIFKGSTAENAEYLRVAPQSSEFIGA
T1 sequence (P00533 25-1210 T790M/C797S/L858R): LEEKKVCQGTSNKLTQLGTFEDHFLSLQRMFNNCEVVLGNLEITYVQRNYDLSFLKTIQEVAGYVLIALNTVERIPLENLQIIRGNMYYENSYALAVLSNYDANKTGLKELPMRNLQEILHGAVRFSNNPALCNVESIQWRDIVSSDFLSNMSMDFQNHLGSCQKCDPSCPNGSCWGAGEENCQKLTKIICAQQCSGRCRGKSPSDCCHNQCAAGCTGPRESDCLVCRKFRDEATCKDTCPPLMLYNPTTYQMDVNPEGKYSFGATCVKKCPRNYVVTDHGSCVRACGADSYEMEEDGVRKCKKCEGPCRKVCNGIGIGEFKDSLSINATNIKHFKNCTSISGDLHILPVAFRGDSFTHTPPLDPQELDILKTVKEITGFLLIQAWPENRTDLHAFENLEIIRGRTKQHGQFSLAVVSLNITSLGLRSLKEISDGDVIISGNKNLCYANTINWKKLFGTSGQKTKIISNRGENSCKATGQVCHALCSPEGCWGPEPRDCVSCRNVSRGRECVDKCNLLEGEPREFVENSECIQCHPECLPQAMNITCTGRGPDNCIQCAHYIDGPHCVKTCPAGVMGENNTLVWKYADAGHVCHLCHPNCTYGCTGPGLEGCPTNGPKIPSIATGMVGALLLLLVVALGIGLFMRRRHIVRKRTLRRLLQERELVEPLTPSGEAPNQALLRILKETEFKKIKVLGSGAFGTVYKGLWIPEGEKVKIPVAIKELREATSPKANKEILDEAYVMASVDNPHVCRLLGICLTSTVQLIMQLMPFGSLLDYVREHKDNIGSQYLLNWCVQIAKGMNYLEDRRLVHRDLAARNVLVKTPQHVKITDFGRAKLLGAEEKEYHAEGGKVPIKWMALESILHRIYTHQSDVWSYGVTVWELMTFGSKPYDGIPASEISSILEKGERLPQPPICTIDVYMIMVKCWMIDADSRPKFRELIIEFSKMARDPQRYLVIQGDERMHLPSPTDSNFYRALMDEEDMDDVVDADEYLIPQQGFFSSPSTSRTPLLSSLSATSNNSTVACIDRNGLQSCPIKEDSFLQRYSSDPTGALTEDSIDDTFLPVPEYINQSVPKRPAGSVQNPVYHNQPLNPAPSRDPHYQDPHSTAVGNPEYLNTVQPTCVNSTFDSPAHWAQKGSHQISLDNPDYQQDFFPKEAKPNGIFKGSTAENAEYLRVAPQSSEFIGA

| SMILES | Dmax (EGFR L858R/T790M/C797S) [%] | Dmax (EGFR L858R/C797S) [%] |
| --- | --- | --- |
| CCOc1cc(N2CCC(N3CCN(CCc4cc(F)c([C@H]5CCC(=O)NC5=O)c(F)c4)CC3)CC2)c(CC)cc1Nc1ncc(Br)c(Nc2ccc3nc(CC)ncc3c2P(C)(C)=O)n1 [Example 460, (R)-3-(4-(2-(4-(1-(4-((5-bromo-4-((5-(dimethylphosphoryl)-2-ethylquinazolin-6-yl)amino)pyrimidin-2-yl)amino)-5-ethoxy-2-ethylphenyl)piperidin-4-yl)piperazin-1-yl)ethyl)-2,6-difluorophenyl)piperidine-2,6-dione] | 82.5 | 88.2 |
| CCc1ccc2c(P(C)(C)=O)c(Nc3nc(Nc4cc(CC)c(N5CCC(N6CCN(CCc7cc(F)c(C8CCC(=O)NC8=O)c(F)c7)CC6)CC5)cc4OC)ncc3Br)ccc2n1 (centres unmarked) [Example 485, 3-(4-(2-(4-(1-(4-((5-bromo-4-((5-(dimethylphosphoryl)-2-ethylquinolin-6-yl)amino)pyrimidin-2-yl)amino)-2-ethyl-5-methoxyphenyl)piperidin-4-yl)piperazin-1-yl)ethyl)-2,6-difluorophenyl)piperidine-2,6-dione] | 88.5 | 88.3 |
| CCOc1cc(N2CCC(N3CCN(CC4CN(c5cc(F)c([C@H]6CCC(=O)NC6=O)c(F)c5)C4)CC3)CC2)c(CC)cc1Nc1ncc(Br)c(Nc2ccc3c(=O)n(CC)ncc3c2P(C)(C)=O)n1 [Example 551, (R)-3-(4-(3-((4-(1-(4-((5-bromo-4-((5-(dimethylphosphoryl)-2-ethyl-1-oxo-1,2-dihydrophthalazin-6-yl)amino)pyrimidin-2-yl)amino)-5-ethoxy-2-ethylphenyl)piperidin-4-yl)piperazin-1-yl)methyl)azetidin-1-yl)-2,6-difluorophenyl)piperidine-2,6-dione] | 89.7 | 86.8 |
| CCc1ccc2c(P(C)(C)=O)c(Nc3nc(Nc4cc(CC)c(N5CCC(N6CCN(CCc7cc(F)c([C@H]8CCC(=O)NC8=O)c(F)c7)CC6)CC5)cc4OC)ncc3Br)ccc2n1 [Example 484, (R)-3-(4-(2-(4-(1-(4-((5-bromo-4-((5-(dimethylphosphoryl)-2-ethylquinolin-6-yl)amino)pyrimidin-2-yl)amino)-2-ethyl-5-methoxyphenyl)piperidin-4-yl)piperazin-1-yl)ethyl)-2,6-difluorophenyl)piperidine-2,6-dione] | 95.4 | 91.6 |
| CCOc1cc(N2CCC(N3CCN(CCc4cc(F)c([C@H]5CCC(=O)NC5=O)c(F)c4)CC3)CC2)c(CC)cc1Nc1ncc(Br)c(Nc2ccc3nc(CC)ccc3c2P(C)(C)=O)n1 [Example 483, (R)-3-(4-(2-(4-(1-(4-((5-bromo-4-((5-(dimethylphosphoryl)-2-ethylquinolin-6-yl)amino)pyrimidin-2-yl)amino)-5-ethoxy-2-ethylphenyl)piperidin-4-yl)piperazin-1-yl)ethyl)-2,6-difluorophenyl)piperidine-2,6-dione] | 86.9 | 83.2 |
| CCOc1cc(N2CCC(N3CCN(CCc4cccc5c4n(CC)c(=O)n5C4CCC(=O)NC4=O)CC3)CC2)c(CC)cc1Nc1ncc(Br)c(Nc2ccc3nc(CC)ccc3c2P(C)(C)=O)n1 (centres unmarked) [Example 504, 3-(4-(2-(4-(1-(4-((5-bromo-4-((5-(dimethylphosphoryl)-2-ethylquinolin-6-yl)amino)pyrimidin-2-yl)amino)-5-ethoxy-2-ethylphenyl)piperidin-4-yl)piperazin-1-yl)ethyl)-3-ethyl-2-oxo-2,3-dihydro-1H-benzo[d]imidazol-1-yl)piperidine-2,6-dione] | 89 | 86 |
| CCOc1cc(N2CCC(N3CCN(CCc4cc(F)c([C@H]5CCC(=O)NC5=O)c(F)c4)CC3)CC2)c(CC)cc1Nc1ncc(Br)c(Nc2ccc3c(=O)n(C)ncc3c2P(C)(C)=O)n1 [Example 502, (R)-3-(4-(2-(4-(1-(4-((5-bromo-4-((5-(dimethylphosphoryl)-2-methyl-1-oxo-1,2-dihydrophthalazin-6-yl)amino)pyrimidin-2-yl)amino)-5-ethoxy-2-ethylphenyl)piperidin-4-yl)piperazin-1-yl)ethyl)-2,6-difluorophenyl)piperidine-2,6-dione] | 96.7 | 87.6 |
| CCOc1cc(N2CCC(N3CCN(CCc4c(F)ccc5c4n(C)c(=O)n5C4CCC(=O)NC4=O)CC3)CC2)c(CC)cc1Nc1ncc(Br)c(Nc2ccc3nc(CC)ccc3c2P(C)(C)=O)n1 (centres unmarked) [Example 503, 3-(4-(2-(4-(1-(4-((5-bromo-4-((5-(dimethylphosphoryl)-2-ethylquinolin-6-yl)amino)pyrimidin-2-yl)amino)-5-ethoxy-2-ethylphenyl)piperidin-4-yl)piperazin-1-yl)ethyl)-5-fluoro-3-methyl-2-oxo-2,3-dihydro-1H-benzo[d]imidazol-1-yl)piperidine-2,6-dione] | 90.2 | 88.9 |

Second part, the compound after the results:

| Dmax (EGFR L858R/T790M/C797S) [%] | Dmax (EGFR L858R/C797S) [%] | SMILES |
| --- | --- | --- |
| 88.6 | 89.1 | CCOc1cc(N2CCC(N3CCN(C(=O)[C@@H]4CCN(c5cc(F)c([C@H]6CCC(=O)NC6=O)c(F)c5)C4)CC3)CC2)c(CC)cc1Nc1ncc(Br)c(Nc2ccc3nc(C)c(F)cc3c2P(C)(C)=O)n1 [Example 577, (R)-3-(4-((R)-3-(4-(1-(4-((5-bromo-4-((5-(dimethylphosphoryl)-3-fluoro-2-methylquinolin-6-yl)amino)pyrimidin-2-yl)amino)-5-ethoxy-2-ethylphenyl)piperidin-4-yl)piperazine-1-carbonyl)pyrrolidin-1-yl)-2,6-difluorophenyl)piperidine-2,6-dione] |
| 92.2 | 95.9 | CCc1cc(Nc2ncc(Br)c(Nc3ccc4nc(C)c(F)cc4c3P(C)(C)=O)n2)c(OC)cc1N1CCC(N2CCN(C(=O)[C@H]3CN(c4cc(F)c([C@H]5CCC(=O)NC5=O)c(F)c4)CC3(C)C)CC2)CC1 [Example 576, (R)-3-(4-((R)-4-(4-(1-(4-((5-bromo-4-((5-(dimethylphosphoryl)-3-fluoro-2-methylquinolin-6-yl)amino)pyrimidin-2-yl)amino)-2-ethyl-5-methoxyphenyl)piperidin-4-yl)piperazine-1-carbonyl)-3,3-dimethylpyrrolidin-1-yl)-2,6-difluorophenyl)piperidine-2,6-dione] |
| 90.3 | 91.8 | CCOc1cc(N2CCC(N3CCN(CCc4cccc5c4C(C)(C)C(=O)N5C4CCC(=O)NC4=O)CC3)CC2)c(CC)cc1Nc1ncc(Br)c(Nc2ccc3nc(CC)ccc3c2P(C)(C)=O)n1 (centres unmarked) [Example 572, 3-(4-(2-(4-(1-(4-((5-bromo-4-((5-(dimethylphosphoryl)-2-ethylquinolin-6-yl)amino)pyrimidin-2-yl)amino)-5-ethoxy-2-ethylphenyl)piperidin-4-yl)piperazin-1-yl)ethyl)-3,3-dimethyl-2-oxoindolin-1-yl)piperidine-2,6-dione] |
| 91.2 | 94.1 | CCOc1cc(N2CCC(N3CCN(CCc4cccc5c4n(CC)c(=O)n5C4CCC(=O)NC4=O)CC3)CC2)c(CC)cc1Nc1ncc(Br)c(Nc2cc(F)c3nc(CC)ccc3c2P(C)(C)=O)n1 (centres unmarked) [Example 643, 3-(4-(2-(4-(1-(4-((5-bromo-4-((5-(dimethylphosphoryl)-2-ethyl-8-fluoroquinolin-6-yl)amino)pyrimidin-2-yl)amino)-5-ethoxy-2-ethylphenyl)piperidin-4-yl)piperazin-1-yl)ethyl)-3-ethyl-2-oxo-2,3-dihydro-1H-benzo[d]imidazol-1-yl)piperidine-2,6-dione] |
| 85.9 | 92.4 | CCc1ncc2c(P(C)(C)=O)c(Nc3nc(Nc4cc(CC)c(N5CCC(N6CCN(CCc7cc(F)c([C@H]8CCC(=O)NC8=O)c(F)c7)CC6)CC5)cc4OC)ncc3Br)ccc2n1 [Example 589, (R)-3-(4-(2-(4-(1-(4-((5-bromo-4-((5-(dimethylphosphoryl)-2-ethylquinazolin-6-yl)amino)pyrimidin-2-yl)amino)-2-ethyl-5-methoxyphenyl)piperidin-4-yl)piperazin-1-yl)ethyl)-2,6-difluorophenyl)piperidine-2,6-dione] |
